Laboratory results: patent publication US8394442B2, “Process for the preparation of a flavoring concentrate, and a flavoring concentrate” (SYMRISE AG, priority 2007, dated 2013)
Like-named read-outs stand apart in the source and are kept apart here.

Experiments:
[1] = log Pow* calculated by Formula 2 from log Pow and the polarity parameter P′(x) of the ethanol/water mixture
[2] = log Pow: distribution coefficient between 1-octanol and water; settings: 1-octanol/water
[3] = solvent ethanol, proportion 10%
[4] = solvent ethanol, proportion 30%
[5] = solvent ethanol, proportion 40%
[6] = solvent ethanol, proportion 50%
[7] = solvent ethanol, proportion 60%
[8] = solvent ethanol, proportion 70%
[9] = solvent ethanol, proportion 80%
[10] = solvent ethanol, proportion 90%
[11] = solvent ethanol, proportion 100%

Compound | log Pow* (P′ 4%) [1] | log Pow* (P′ 6%) [1] | log Pow* (P′ 8%) [1] | log Pow* (P′ 10%) [1] | log Pow* (P′ 30%) [1] | log Pow* (P′ 40%) [1] | log Pow [2] | log Pow* (P′ 2%) ([1]; solvent ethanol, proportion 2%) | log Pow* (P′ 4%) ([1]; solvent ethanol, proportion 4%) | log Pow* (P′ 6%) ([1]; solvent ethanol, proportion 6%) | log Pow* (P′ 8%) ([1]; solvent ethanol, proportion 8%) | log Pow* (P′ 10%) [1, 3] | log Pow* (P′ 30%) [1, 4] | log Pow* (P′ 40%) [1, 5] | log Pow* (P′ 50%) [1, 6] | log Pow* (P′ 60%) [1, 7] | log Pow* (P′ 70%) [1, 8] | log Pow* (P′ 80%) [1, 9] | log Pow* (P′ 90%) [1, 10] | log Pow* (P′ 100%) [1, 11] | further results
C=Cc1ccc(O)c(OC)c1 | 2.32 | 2.25 | 2.18 | 2.12 | 1.61 | 1.42 |  |  |  |  |  |  |  |  |  |  |  |  |  |  | log Pow* (P′ 2%) [1]: 2.40; log Pow* (P′ 50%) [1]: 1.26; log Pow* (P′ 60%) [1]: 1.13; log Pow* (P′ 70%) [1]: 1.01; log Pow* (P′ 80%) [1]: 0.91; log Pow* (P′ 90%) [1]: 0.82; log Pow* (P′ 100%) [1]: 0.75
CCC(C)CO (centres unmarked) [2-mebutanol, 2-methylbutanol] |  |  |  |  |  |  | 1.29 | 1.14 | 0.99 | 0.85 | 0.72 | 0.59 | −0.39 | −0.75 | −1.05 | −1.31 | −1.53 | −1.73 | −1.89 | −2.04 | 
CCC/C=C/C=O [2E-hexenal] |  |  |  |  |  |  | 1.61 | 1.49 | 1.37 | 1.26 | 1.15 | 1.05 | 0.26 | −0.03 | −0.27 | −0.47 | −0.65 | −0.81 | −0.94 | −1.06 | 
CCC/C=C/CO [2E-hexenol] |  |  |  |  |  |  | 1.75 | 1.64 | 1.53 | 1.43 | 1.33 | 1.24 | 0.51 | 0.24 | 0.02 | −0.17 | −0.33 | −0.47 | −0.60 | −0.71 | 
CC(C)CCO [3-mebutanol, 3-methylbutanol] | 0.98 | 0.84 | 0.71 | 0.58 | −0.41 | −0.78 | 1.28 |  |  |  |  |  |  |  |  |  |  |  |  |  | log Pow* (P′ 2%) [1]: 1.12; log Pow* (P′ 50%) [1]: −1.08; log Pow* (P′ 60%) [1]: −1.34; log Pow* (P′ 70%) [1]: −1.57; log Pow* (P′ 80%) [1]: −1.76; log Pow* (P′ 90%) [1]: −1.93; log Pow* (P′ 100%) [1]: −2.08
O=Cc1ccccc1 [Benzaldehyde] |  |  |  |  |  |  |  | 1.52 | 1.40 | 1.30 | 1.19 | 1.09 | 0.32 | 0.03 | −0.20 | −0.41 | −0.58 | −0.73 | −0.86 | −0.98 | 
CCCCOC(C)=O [Butylacetate] |  |  |  |  |  |  | 1.77 | 1.66 | 1.55 | 1.45 | 1.35 | 1.26 | 0.55 | 0.28 | 0.06 | −0.13 | −0.29 | −0.43 | −0.55 | −0.66 | 
CC(C)=CCCC(C)=CC=O [Citral] | 3.05 | 2.99 | 2.94 | 2.89 | 2.49 | 2.34 | 3.17 |  |  |  |  |  |  |  |  |  |  |  |  |  | log Pow* (P′ 2%) [1]: 3.11; log Pow* (P′ 50%) [1]: 2.22; log Pow* (P′ 60%) [1]: 2.11; log Pow* (P′ 70%) [1]: 2.02; log Pow* (P′ 80%) [1]: 1.94; log Pow* (P′ 90%) [1]: 1.87; log Pow* (P′ 100%) [1]: 1.81
CC(=O)C(C)=O [Diacetyl] |  |  |  |  |  |  | −1.33 | −1.48 | −1.62 | −1.76 | −1.88 | −2.00 | −2.96 | −3.31 | −3.60 | −3.85 | −4.07 | −4.25 | −4.42 | −4.56 | 
CCCSSCCC [Dipropyldisulfide] | 3.80 | 3.76 | 3.71 | 3.67 | 3.34 | 3.22 | 3.90 |  |  |  |  |  |  |  |  |  |  |  |  |  | log Pow* (P′ 2%) [1]: 3.85; log Pow* (P′ 50%) [1]: 3.12; log Pow* (P′ 60%) [1]: 3.04; log Pow* (P′ 70%) [1]: 2.97; log Pow* (P′ 80%) [1]: 2.90; log Pow* (P′ 90%) [1]: 2.85; log Pow* (P′ 100%) [1]: 2.80
CCCC(=O)OCC [Ethylbutyrate] | 1.55 | 1.45 | 1.35 | 1.26 | 0.55 | 0.28 | 1.77 |  |  |  |  |  |  |  |  |  |  |  |  |  | log Pow* (P′ 2%) [1]: 1.66; log Pow* (P′ 50%) [1]: 0.06; log Pow* (P′ 60%) [1]: −0.13; log Pow* (P′ 70%) [1]: −0.29; log Pow* (P′ 80%) [1]: −0.43; log Pow* (P′ 90%) [1]: −0.55; log Pow* (P′ 100%) [1]: −0.66
CCOC(=O)C(C)CC (centres unmarked) [Ethylmethylbutyrate-2] |  |  |  |  |  |  | 2.38 | 2.30 | 2.22 | 2.14 | 2.07 | 2.00 | 1.47 | 1.27 | 1.11 | 0.97 | 0.85 | 0.75 | 0.65 | 0.57 | 
O=Cc1ccco1 [Furfural] |  |  |  |  |  |  |  | 0.46 | 0.20 | −0.04 | −0.28 | −0.50 | −2.24 | −2.88 | −3.41 | −3.87 | −4.26 | −4.60 | −4.90 | −5.16 | 
OCc1ccco1 [Furfuryl alcohol] |  |  |  |  |  |  |  | −0.43 | −1.10 | −1.74 | −2.35 | −2.92 | −7.46 | −9.13 | −10.52 | −11.71 | −12.73 | −13.61 | −14.39 | −15.08 | 
SCc1ccco1 [Furfurylthiol-2] |  |  |  |  |  |  | 1.90 | 1.80 | 1.70 | 1.60 | 1.51 | 1.43 | 0.76 | 0.51 | 0.31 | 0.13 | −0.02 | −0.15 | −0.26 | −0.36 | 
CCCCCC=O [Hexanal] | 1.77 | 1.68 | 1.60 | 1.51 | 0.87 | 0.63 |  |  |  |  |  |  |  |  |  |  |  |  |  |  | log Pow* (P′ 50%) [1]: 0.43; log Pow* (P′ 60%) [1]: 0.27; log Pow* (P′ 70%) [1]: 0.12; log Pow* (P′ 80%) [1]: 0.00; log Pow* (P′ 90%) [1]: −0.12; log Pow* (P′ 100%) [1]: −0.21
CCCCCCOC(C)=O [Hexylacetate] | 2.69 | 2.63 | 2.57 | 2.51 | 2.06 | 1.90 |  |  |  |  |  |  |  |  |  |  |  |  |  |  | log Pow* (P′ 2%) [1]: 2.76; log Pow* (P′ 50%) [1]: 1.76; log Pow* (P′ 60%) [1]: 1.64; log Pow* (P′ 70%) [1]: 1.54; log Pow* (P′ 80%) [1]: 1.46; log Pow* (P′ 90%) [1]: 1.38; log Pow* (P′ 100%) [1]: 1.31
c1ccc2[nH]ccc2c1 [Indole] |  |  |  |  |  |  | 2.14 | 2.05 | 1.96 | 1.88 | 1.80 | 1.72 | 1.13 | 0.91 | 0.73 | 0.57 | 0.44 | 0.32 | 0.22 | 0.13 | 
CC/C=C\CC1CCCC(=O)O1 (centres unmarked) [Jasmine lactone] |  |  |  |  |  |  | 2.47 | 2.39 | 2.31 | 2.24 | 2.17 | 2.11 | 1.59 | 1.40 | 1.25 | 1.11 | 1.00 | 0.90 | 0.81 | 0.73 | 
Oc1ccccc1 [Phenol] |  |  |  |  |  |  |  | 1.35 | 1.22 | 1.10 | 0.98 | 0.87 | 0.02 | −0.30 | −0.56 | −0.79 | −0.98 | −1.15 | −1.30 | −1.43 | 
